# Data published in US20040005623A1, “Method of determining tumor sensitivities to therapeutic drugs” (priority 2002, published 2004).
# Experiments:
# [1] = target: T1, KIT Val560Gly juxtamembrane regulatory type mutant (Homo sapiens, UniProt P10721, V560G); test: SCF-independent constitutive phosphorylation of Val560Gly mutant KIT expressed in COS cells; format: cell-based; details: inhibitor at 0.1 to 1 μM, FIG. 1 lanes 6-7
# T1 construct: expressed in transfected cells; host or cells: COS cells
# T1 sequence (P10721 26-976 V560G): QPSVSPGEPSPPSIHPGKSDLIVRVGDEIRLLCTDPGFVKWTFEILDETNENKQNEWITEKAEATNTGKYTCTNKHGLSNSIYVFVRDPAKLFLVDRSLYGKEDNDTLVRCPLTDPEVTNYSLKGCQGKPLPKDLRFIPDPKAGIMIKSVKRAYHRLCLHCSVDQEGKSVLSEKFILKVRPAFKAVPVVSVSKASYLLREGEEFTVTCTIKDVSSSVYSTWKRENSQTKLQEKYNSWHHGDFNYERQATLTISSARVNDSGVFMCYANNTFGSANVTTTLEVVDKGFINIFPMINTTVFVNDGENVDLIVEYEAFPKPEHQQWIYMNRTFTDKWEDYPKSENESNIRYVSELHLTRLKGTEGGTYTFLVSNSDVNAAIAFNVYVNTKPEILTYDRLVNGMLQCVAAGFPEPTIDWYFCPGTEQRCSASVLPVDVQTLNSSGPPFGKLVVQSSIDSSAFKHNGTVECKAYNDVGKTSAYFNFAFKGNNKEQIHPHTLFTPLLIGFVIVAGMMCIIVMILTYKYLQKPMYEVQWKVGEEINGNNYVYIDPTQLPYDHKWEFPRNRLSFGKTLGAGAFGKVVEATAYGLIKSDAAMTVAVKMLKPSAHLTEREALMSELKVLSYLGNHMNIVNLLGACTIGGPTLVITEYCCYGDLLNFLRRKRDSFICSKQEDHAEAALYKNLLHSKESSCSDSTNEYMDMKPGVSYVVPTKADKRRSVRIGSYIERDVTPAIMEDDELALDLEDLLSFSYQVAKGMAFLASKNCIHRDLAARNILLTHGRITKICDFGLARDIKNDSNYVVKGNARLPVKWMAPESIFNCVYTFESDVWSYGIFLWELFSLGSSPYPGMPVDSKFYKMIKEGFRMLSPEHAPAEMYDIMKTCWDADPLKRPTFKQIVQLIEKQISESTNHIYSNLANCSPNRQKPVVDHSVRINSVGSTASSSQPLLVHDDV
# Description: (§1) Two subclones of the human mast cell leukemia line HMC1 were used to determine if the wild type and mutant KIT enzymes were able to interact with 2 drug compounds, […] and SU9529. Set forth as SEQ ID NO:1 is a nucleotide sequence for the wild type KIT enzyme (amino acid sequence is set forth as SEQ ID NO:2). One subclone, HMC1.1, expressed a valine to glycine substitution in codon 560 (Val560Gly) of the KIT intracellular juxtamembrane region. The other, HMC1.2, expressed the Val560Gly mutation and a second substitution, aspartate to valine in codon 816 (Asp816Val) in the kinase enzymatic pocket. […] For additional study of wild type and specific mutant forms of KIT, COS cells were used for transient expression of human wild-type and mutated c-KIT complementary DNAs, as described previously by Ma et al., “Inhibition of spontaneous receptor phosphorylation by residues in putatitive α-helix in the KIT intracellular juxtamembrane region,” J. Biol. Chem., 274:13399-13402 (1999). ST1571 is a commercially available drug manufactured by Novartis and developed as an inhibitor of the c-abl gene product. ST1571 has been reported to inhibit wild-type KIT and KIT expressed by HMC1. The other compound, SU9529, is manufactured by SUGEN and has not yet been made commercially available, although it has been published. […]
# HMC1 line = details: at 1 μM; cited from earlier work
# wild-type KIT [2] = target: T2, wild-type KIT (Homo sapiens, UniProt P10721); details: has been reported; cited from earlier work
# Target sequence in this assay (P10721 26-976, species assumed): as the sequence (P10721 26-976 V560G) above, with G535V counted along it
# KIT expressed by HMC1 = KIT expressed by HMC1 (Homo sapiens, UniProt P10721, V560G); details: has been reported; cited from earlier work
# Sequence of KIT expressed by HMC1 (P10721 26-976 V560G): as the sequence (P10721 26-976 V560G) above
# wild-type KIT [3] = target: T2, wild-type KIT; test: SCF-induced phosphorylation of wild-type KIT transiently expressed in COS cells (antiphosphotyrosine blot); format: cell-based; parameters: expressed in transfected cells; host or cells: COS cells; details: inhibitor at 0.1 to 1 μM, 1 hour, FIG. 1 lanes 3-4
# Description: as §1
# Target sequence in this assay (P10721 26-976): as the sequence (P10721 26-976 V560G) above, with G535V counted along it
smiles,measurement,setting,value
Cc1ccc(NC(=O)c2ccc(CN3CCN(C)CC3)cc2)cc1Nc1nccc(-c2cccnc2)n1 [ST1571],inhibition of SCF-independent constitutive phosphorylation of Val560Gly KIT,[1],inhibit
same,previously reported ability to kill an HMC1 line,HMC1 line,kill
same,reported inhibition of wild-type KIT,wild-type KIT [2],inhibit
same,reported inhibition of KIT expressed by HMC1,KIT expressed by HMC1,inhibit
same,inhibition of SCF-induced phosphorylation of wild-type KIT,wild-type KIT [3],prevent the phosphorylation
